Patent publication US10800730B2, “Complex and structurally diverse compounds” (The Board of Trustees of the University of Illinois, priority 2012, dated 2020)

Experiments:
B16F10 (melanoma) = assay: 72-hour IC50 toward B16F10 cancer cell line; format: cell-based; details: Mus musculus, B16-F10
Source text: (§1) Compounds prepared according to the methods described herein have been screened for activity against various cancer cell lines.

HeLa (cervical) = assay: 72-hour IC50 toward HeLa cancer cell line; format: cell-based; details: Homo sapiens
Source text: as §1

A549 (lung) = assay: 72-hour IC50 toward A549 cancer cell line; format: cell-based; details: Homo sapiens
Source text: as §1

H1299 (NSC lung) = assay: 72-hour IC50 toward H1299 cancer cell line; format: cell-based; details: Homo sapiens, NCI-H1299
Source text: as §1

MCF7 (breast) = assay: 72-hour IC50 toward MCF7 cancer cell line; format: cell-based; details: Homo sapiens
Source text: as §1

U-937 cells = assay: Non-apoptotic cell death of U-937 cells; format: cell-based; details: U-937 cells (FIG. 12)
Source text: FIG. 12. Non-apoptotic cell death of U-937 cells by compound GA-4.

caspase = assay: Western blot for caspase activation; format: cell-based; details: Western blot (FIG. 11)
U-937 (lymphoma) = assay: 72-hour IC50 toward U-937 cancer cell line; format: cell-based; details: Homo sapiens
Source text: as §1

EL-4 (lymphoma) = assay: 72-hour IC50 toward EL-4 cancer cell line; format: cell-based
Source text: as §1

[1] = test system: EL-4 syngeneic mouse model; assay: Tumor volume in EL-4 syngeneic mouse model; format: in vivo; details: 2 treatments at 30 mg/kg over one week and a final treatment at 20 mg/kg after the first week, p=0.023, n=8

Row | IC50 (B16F10 (melanoma)) [nM] | IC50 (HeLa (cervical)) [nM] | IC50 (A549 (lung)) [nM] | IC50 (H1299 (NSC lung)) [nM] | IC50 (MCF7 (breast)) [nM] | IC50 (U-937 (lymphoma)) [nM] | IC50 (EL-4 (lymphoma)) [nM] | Compound | non-apoptotic cell death (U-937 cells) | caspase activation (caspase) | reduction in tumor volume [1] [%]
1 | 1000 ± 400 | 1140 ± 30 | 5900 ± 50 | 2400 ± 800 | 4800 ± 1300 | 560 ± 180 | 850 ± 90 | C=C1C[C@]23C[C@@]1(O)CC[C@H]2[C@@]12C=CC(=O)C(C)(C(=O)O1)[C@H]2[C@@H]3C(=O)OC [GA-4] | remarkable amounts of non-apoptotic cell death | lack of caspase activation | 43
2 |  | 4900 ± 90 | 4500 ± 90 |  |  | 1780 ± 90 |  | COC(=O)[C@H]1[C@@H]2C3(C)C(=O)C=C[C@@]2(OC3=O)[C@@H]2CC[C@@]3(CBr)C[C@]21CC3=O [GA-81] |  |  | 
